Experimental data published in PubChem BioAssay (NCI).
Several values for one entry are separate records, joined by “and”; a condition that tells them apart may be missing. Identical values can stand only once.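 Following 48 hours of exposure in 96-well plates, responses at five concentrations were used to interpolate endpoints linearly. GI50 = concentration required for 50% inhibition of growth. TGI denotes the concentration required for complete inhibition of growth.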

How the values were obtained:
Experiment in all cases: NCI tumour cell line growth inhibition, 48 h
[1] = test system: KM12 colon
[2] = test system: PC-3 prostate
[3] = test system: CCRF-CEM leukemia
[4] = test system: NCI-H460 lung
[5] = test system: SW-620 colon
[6] = test system: ACHN renal
[7] = test system: M14 melanoma
[8] = test system: MCF7 breast
[9] = test system: SF-268 CNS
[10] = test system: RXF 393 renal
[11] = test system: A498 renal
[12] = test system: EKVX NSCLC
[13] = test system: SNB-75 CNS
[14] = test system: HCC-2998 colon
[15] = test system: MOLT-4 leukemia
[16] = test system: HOP-62 NSCLC
[17] = test system: OVCAR-4 ovarian
[18] = test system: SF-539 CNS
[19] = test system: NCI-H522 lung
[20] = test system: OVCAR-5 ovarian
[21] = test system: 786-0 renal
[22] = test system: T-47D breast
[23] = test system: SK-MEL-28 melanoma
[24] = test system: A549 NSCLC
[25] = test system: HL-60(TB) leukemia
[26] = test system: OVCAR-3 ovarian
[27] = test system: SN12C renal
[28] = test system: HCT-116 colon
[29] = test system: SK-OV-3 ovarian
[30] = test system: IGROV1 ovarian
[31] = test system: UO-31 renal
[32] = test system: BT-549 breast
[33] = test system: NCI-H23 lung
[34] = test system: HCT-15 colon
[35] = test system: HS 578T breast
[36] = test system: MDA-MB-435
[37] = test system: SNB-19 CNS
[38] = test system: MDA-N
[39] = test system: RPMI-8226 leukemia
[40] = test system: HT29 colon
[41] = test system: OVCAR-8 ovarian
[42] = test system: MDA-MB-231 breast
[43] = test system: SR leukemia
[44] = test system: LOX IMVI melanoma
[45] = test system: U251 CNS
[46] = test system: COLO 205 colon
[47] = test system: UACC-257 melanoma
[48] = test system: NCI/ADR-RES ovarian
[49] = test system: CAKI-1 renal
[50] = test system: TK-10 renal
[51] = test system: SF-295 CNS
[52] = test system: MALME-3M melanoma
[53] = test system: K-562 leukemia
[54] = test system: UACC-62 melanoma
[55] = test system: SK-MEL-2 melanoma
[56] = test system: DU-145 prostate
[57] = test system: NCI-H226 lung
[58] = test system: SK-MEL-5 melanoma
[59] = test system: HOP-92 NSCLC

## COc1ccc2[nH]c3c(C)c4ccnc(NCCCN(C)CCCNc5ccc6nnn7c8ccccc8c(=O)c5c67)c4c(C)c3c2c1
[1]
  GI50: 0.818 µM
  TGI: 1.8 µM and 2.33 µM
[2]
  TGI: 1.91 µM
[3]
  TGI: 5.51 µM
[4]
  TGI: 0.492 µM
[5]
  TGI: 1.16 µM
[6]
  GI50: 0.136 µM
  TGI: 1.29 µM and 1.55 µM
[7]
  TGI: 2.13 µM
[8]
  TGI: 1.25 µM
[9]
  GI50: 0.209 µM
  TGI: 2.51 µM and 3.14 µM
[10]
  TGI: 2.57 µM
[11]
  TGI: 2.88 µM
[12]
  TGI: 2.17 µM
[13]
  GI50: 1.41 µM
  TGI: 2.17 µM and 2.86 µM
[14]
  TGI: 1.44 µM
[15]
  TGI: 0.132 µM
[16]
  TGI: 2.05 µM
[17]
  TGI: 4.72 µM
[18]
  TGI: 1.38 µM
[19]
  TGI: 1.67 µM
[20]
  TGI: 2.73 µM
[21]
  TGI: 1.69 µM
[22]
  TGI: 6.94 µM
[23]
  GI50: 3.45 µM
[24]
  TGI: 1.06 µM
[25]
  TGI: 1.21 µM
[26]
  TGI: 2.4 µM
[27]
  GI50: 0.294 µM
  TGI: 1.99 µM and 1.67 µM
[28]
  TGI: 1.14 µM
[29]
  GI50: 3.29 µM
  TGI: > 100 µM
[30]
  TGI: 1.8 µM
[31]
  GI50: 1.29 µM
  TGI: 2.61 µM and 2.76 µM
[32]
  TGI: 3.51 µM
[33]
  TGI: 2.04 µM
[34]
  TGI: 1.57 µM
[35]
  TGI: 3.91 µM
[36]
  TGI: 1.75 µM
[37]
  TGI: 2.42 µM
[38]
  TGI: 2.09 µM
[39]
  TGI: 2.19 µM
[40]
  TGI: 1.36 µM
[41]
  TGI: 2.13 µM
[42]
  TGI: 3.19 µM
[43]
  TGI: > 100 µM
[44]
  TGI: 1.62 µM
[45]
  TGI: 1.67 µM
[46]
  TGI: 3.53 µM
[47]
  TGI: 4.75 µM
[48]
  TGI: 2.69 µM
[49]
  TGI: 2.27 µM
[50]
  TGI: 2.38 µM
[51]
  TGI: 1.44 µM

## CC1(C)CC(=O)C(Cc2ccccc2)(Cc2ccccc2)C(=O)C1
[1]
  TGI: > 100 µM
[2]
  TGI: > 100 µM
[3]
  TGI: > 100 µM
[4]
  TGI: > 100 µM
[5]
  TGI: > 100 µM
[6]
  TGI: > 100 µM
[7]
  TGI: > 100 µM
[8]
  TGI: > 100 µM
[9]
  TGI: > 100 µM
[52]
  TGI: > 100 µM
[10]
  TGI: > 100 µM
[12]
  TGI: > 100 µM
[13]
  TGI: > 100 µM
[53]
  TGI: > 100 µM
[14]
  TGI: > 100 µM
[15]
  TGI: > 100 µM
[16]
  TGI: > 100 µM
[17]
  TGI: > 100 µM
[18]
  TGI: > 100 µM
[19]
  TGI: > 100 µM
[20]
  TGI: > 100 µM
[21]
  TGI: > 100 µM
[54]
  TGI: > 100 µM
[22]
  TGI: > 100 µM
[55]
  TGI: > 100 µM
[23]
  TGI: > 100 µM
[24]
  TGI: > 100 µM
[25]
  TGI: > 100 µM
[27]
  TGI: > 100 µM
[28]
  TGI: > 100 µM
[29]
  TGI: > 100 µM
[30]
  TGI: > 100 µM
[31]
  TGI: > 100 µM
[32]
  TGI: > 100 µM
[33]
  TGI: > 100 µM
[34]
  TGI: > 100 µM
[35]
  TGI: > 100 µM
[37]
  TGI: > 100 µM
[38]
  TGI: > 100 µM
[56]
  TGI: > 100 µM
[40]
  TGI: > 100 µM
[57]
  TGI: > 100 µM
[41]
  TGI: > 100 µM
[42]
  TGI: > 100 µM
[43]
  TGI: > 100 µM
[44]
  TGI: > 100 µM
[45]
  TGI: > 100 µM
[46]
  TGI: > 100 µM
[47]
  TGI: > 100 µM
[48]
  TGI: > 100 µM
[49]
  TGI: > 100 µM
[50]
  TGI: > 100 µM
[51]
  TGI: > 100 µM
[58]
  TGI: > 100 µM

## Cc1ccc(S(=O)(=O)NC(CCC(=O)NN)C(=O)NN)cc1 (configuration not stated)
[1]
  TGI: > 100 µM
[2]
  TGI: > 100 µM
[3]
  TGI: > 100 µM
[4]
  TGI: 21.6 µM
[5]
  TGI: > 100 µM
[6]
  TGI: > 100 µM
[7]
  TGI: > 100 µM
[8]
  TGI: > 100 µM
[9]
  TGI: > 100 µM
[52]
  TGI: > 100 µM
[10]
  TGI: > 100 µM
[11]
  TGI: > 100 µM
[12]
  TGI: > 100 µM
[13]
  TGI: > 100 µM
[53]
  TGI: > 100 µM
[15]
  TGI: > 100 µM
[16]
  TGI: > 100 µM
[17]
  TGI: > 100 µM
[18]
  TGI: > 100 µM
[19]
  TGI: > 100 µM
[20]
  TGI: > 100 µM
[21]
  TGI: > 100 µM
[54]
  TGI: > 100 µM
[22]
  TGI: > 100 µM
[55]
  TGI: > 100 µM
[24]
  TGI: > 100 µM
[25]
  TGI: > 100 µM
[26]
  TGI: > 100 µM
[28]
  TGI: > 100 µM
[29]
  TGI: > 100 µM
[30]
  TGI: > 100 µM
[31]
  TGI: > 100 µM
[32]
  TGI: > 100 µM
[33]
  TGI: > 100 µM
[34]
  TGI: > 100 µM
[59]
  TGI: > 100 µM
[35]
  TGI: > 100 µM
[36]
  TGI: > 100 µM
[37]
  TGI: > 100 µM
[38]
  TGI: > 100 µM
[39]
  TGI: > 100 µM
[40]
  TGI: > 100 µM
[57]
  TGI: > 100 µM
[41]
  TGI: > 100 µM
[42]
  TGI: > 100 µM
[43]
  TGI: > 100 µM
[44]
  TGI: > 100 µM
[45]
  TGI: > 100 µM
[46]
  TGI: > 100 µM
[47]
  TGI: > 100 µM
[48]
  TGI: > 100 µM
[49]
  TGI: > 100 µM
[50]
  TGI: > 100 µM
[51]
  TGI: > 100 µM
[58]
  TGI: > 100 µM
